{"source": "ChEMBL document CHEMBL4806963", "about": "“Antagonistic peptides for frizzled-1 and frizzled-2” (2013)", "key": {"[1]": {"molecular_target": "Frizzled-1 (Rattus norvegicus) (UniProt Q08463)", "sequence (Q08463 whole entry)": "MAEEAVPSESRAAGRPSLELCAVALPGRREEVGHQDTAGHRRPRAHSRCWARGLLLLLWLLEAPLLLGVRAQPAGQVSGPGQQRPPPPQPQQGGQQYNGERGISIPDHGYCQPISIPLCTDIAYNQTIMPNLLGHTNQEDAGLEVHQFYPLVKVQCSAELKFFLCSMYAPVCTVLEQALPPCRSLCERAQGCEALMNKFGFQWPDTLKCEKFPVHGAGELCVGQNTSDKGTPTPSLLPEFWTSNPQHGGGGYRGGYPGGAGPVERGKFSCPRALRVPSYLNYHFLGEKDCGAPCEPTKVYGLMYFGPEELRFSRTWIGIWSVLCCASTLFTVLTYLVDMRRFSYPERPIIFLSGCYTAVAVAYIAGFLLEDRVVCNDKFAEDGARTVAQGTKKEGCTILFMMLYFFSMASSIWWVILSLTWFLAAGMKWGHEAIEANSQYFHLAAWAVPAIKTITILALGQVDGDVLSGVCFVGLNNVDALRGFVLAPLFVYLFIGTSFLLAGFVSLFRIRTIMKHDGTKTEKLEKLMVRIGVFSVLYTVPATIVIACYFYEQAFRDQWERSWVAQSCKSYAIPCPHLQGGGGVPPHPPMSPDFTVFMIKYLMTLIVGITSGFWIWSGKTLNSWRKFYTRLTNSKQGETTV", "assay": "Antagonist activity at rat frizzled-1 expressed in rat C-FIT cells assessed as inhibition of Wnt5a-stimulated blockade of migration at 10 nM incubated for 48 hrs and measured for 24 hrs following the scratch by scratch wound healing assay", "assay_type": "cell-based", "conditions": "filed as antagonist, time 72.0 hrs"}, "[2]": {"molecular_target": "Frizzled-2 (Homo sapiens) (UniProt Q14332)", "sequence (Q14332 24-565 limits assumed)": "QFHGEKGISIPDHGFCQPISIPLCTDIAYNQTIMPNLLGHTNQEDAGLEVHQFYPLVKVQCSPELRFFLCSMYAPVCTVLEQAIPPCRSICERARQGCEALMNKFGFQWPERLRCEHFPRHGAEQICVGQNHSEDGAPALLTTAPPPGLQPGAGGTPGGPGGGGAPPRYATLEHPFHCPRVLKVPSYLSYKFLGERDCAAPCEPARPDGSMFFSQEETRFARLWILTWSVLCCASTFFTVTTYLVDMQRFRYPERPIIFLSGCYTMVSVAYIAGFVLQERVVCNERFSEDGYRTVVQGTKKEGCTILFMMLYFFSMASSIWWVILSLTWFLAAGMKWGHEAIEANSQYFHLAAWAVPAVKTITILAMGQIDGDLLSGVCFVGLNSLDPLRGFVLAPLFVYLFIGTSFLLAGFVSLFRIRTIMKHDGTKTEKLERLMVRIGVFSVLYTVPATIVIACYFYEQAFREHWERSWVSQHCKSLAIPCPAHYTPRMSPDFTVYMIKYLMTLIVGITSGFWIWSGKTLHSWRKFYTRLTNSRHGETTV", "assay": "Antagonist activity at Wnt3a-stimulated frizzled-2 (unknown origin) expressed in human HEK293superTOP flash cells incubated for 24 hrs by luciferase reporter gene assay", "assay_type": "functional, cell-based", "conditions": "HEK293, filed as antagonist"}, "[3]": {"molecular_target": "Frizzled-2 (Rattus norvegicus) (UniProt Q08464)", "sequence (Q08464 29-570 limits assumed)": "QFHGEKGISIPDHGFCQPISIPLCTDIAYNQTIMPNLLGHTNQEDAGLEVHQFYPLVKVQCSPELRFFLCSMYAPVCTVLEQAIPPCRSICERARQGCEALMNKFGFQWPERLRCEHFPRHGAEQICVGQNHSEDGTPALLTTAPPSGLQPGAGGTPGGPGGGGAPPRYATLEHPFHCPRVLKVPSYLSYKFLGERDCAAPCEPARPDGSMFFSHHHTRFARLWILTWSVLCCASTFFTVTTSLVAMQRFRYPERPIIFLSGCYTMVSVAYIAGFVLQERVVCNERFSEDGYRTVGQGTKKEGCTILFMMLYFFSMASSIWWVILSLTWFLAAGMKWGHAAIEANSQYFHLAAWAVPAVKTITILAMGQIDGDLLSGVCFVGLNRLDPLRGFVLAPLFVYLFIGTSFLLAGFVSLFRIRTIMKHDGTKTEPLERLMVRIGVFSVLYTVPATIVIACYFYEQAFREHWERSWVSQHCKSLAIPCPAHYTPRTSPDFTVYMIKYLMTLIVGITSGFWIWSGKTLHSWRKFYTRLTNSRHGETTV", "assay": "Agonist activity at rat frizzled-2 expressed in human HEK293superTOP flash cells by luciferase reporter gene assay", "assay_type": "cell-based", "conditions": "HEK293"}, "[4]": {"tested_on": "Mus musculus", "assay": "Cardioprotective activity against myocardial infarction Swiss mouse model assessed as reduction in wet lung weight at 6 ug/kg/day, sc via osmotic pumps for 5 weeks", "assay_type": "functional, organism-based", "conditions": "dose 6.0 µg/kg/day"}, "[5]": {"tested_on": "Mus musculus", "assay": "Cardioprotective activity against myocardial infarction Swiss mouse model assessed as increase in infarct area thickness in heart at 6 ug/kg/day, sc via osmotic pumps for 2 to 5 weeks by immunohistochemical staining analysis", "assay_type": "functional, organism-based", "conditions": "dose 6.0 µg/kg/day, time 2-5 weeks"}, "[6]": {"molecular_target": "Frizzled-1 (Rattus norvegicus) (UniProt Q08463)", "assay": "Agonist activity at rat frizzled-1 expressed in human HEK293superTOP flash cells by luciferase reporter gene assay", "assay_type": "cell-based", "conditions": "HEK293"}, "[7]": {"molecular_target": "Frizzled-1 (Rattus norvegicus) (UniProt Q08463)", "assay": "Agonist activity at rat frizzled-1 expressed in African green monkey COS7 cells by luciferase reporter gene assay", "assay_type": "cell-based"}, "[8]": {"molecular_target": "Frizzled-2 (Rattus norvegicus) (UniProt Q08464)", "assay": "Agonist activity at rat frizzled-2 expressed in CHO cells by luciferase reporter gene assay", "assay_type": "cell-based"}, "[9]": {"species_on_record": "Rattus norvegicus", "assay": "Selectivity index, ratio of IC50 for Wnt3a-stimulated rat frizzled-1 expressed in human HEK293superTOPFlash cells to IC50 for Wnt3a-stimulated rat frizzled-2 expressed in human HEK293superTOPFlash cells", "assay_type": "cell-based"}, "[10]": {"molecular_target": "T1, Frizzled-4 (Homo sapiens) (UniProt Q9ULV1)", "T1 sequence (whole entry)": "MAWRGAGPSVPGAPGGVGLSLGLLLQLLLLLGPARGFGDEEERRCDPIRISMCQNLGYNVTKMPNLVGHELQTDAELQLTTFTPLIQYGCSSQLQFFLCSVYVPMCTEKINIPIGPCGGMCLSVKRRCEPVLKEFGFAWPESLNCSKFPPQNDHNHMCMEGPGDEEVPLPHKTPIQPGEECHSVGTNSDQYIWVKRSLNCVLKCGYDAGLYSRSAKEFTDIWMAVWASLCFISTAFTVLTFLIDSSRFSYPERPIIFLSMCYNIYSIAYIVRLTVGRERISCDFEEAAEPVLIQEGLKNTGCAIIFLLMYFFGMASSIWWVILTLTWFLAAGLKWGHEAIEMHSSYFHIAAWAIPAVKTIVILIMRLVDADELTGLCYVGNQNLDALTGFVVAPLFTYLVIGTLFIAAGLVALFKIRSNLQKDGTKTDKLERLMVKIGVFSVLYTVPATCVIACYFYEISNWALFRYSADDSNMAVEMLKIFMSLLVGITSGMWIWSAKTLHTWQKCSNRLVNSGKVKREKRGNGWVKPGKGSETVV", "assay": "Antagonist activity at Wnt3a-stimulaed frizzled-4 (unknown origin) expressed in human HEK293superTOP flash cells incubated for 24 hrs by luciferase reporter gene assay", "assay_type": "functional, cell-based", "conditions": "HEK293"}, "[11]": {"molecular_target": "Frizzled-1 (Rattus norvegicus) (UniProt Q08463)", "assay": "Antagonist activity at Wnt3a-stimulated rat frizzled-1 expressed in African green monkey COS7 cells incubated for 24 hrs by luciferase reporter gene assay relative to control", "assay_type": "cell-based", "conditions": "filed as antagonist, concentration not given here"}, "[12]": {"molecular_target": "Frizzled-2 (Homo sapiens) (UniProt Q14332)", "assay": "Antagonist activity at frizzled-2 (unknown origin) expressed in human HEK293superTOP flash cells incubated for 24 hrs by luciferase reporter gene assay", "assay_type": "functional, cell-based", "conditions": "HEK293"}, "[13]": {"tested_on": "Mus musculus", "assay": "Cardioprotective activity against myocardial infarction Swiss mouse model assessed as reduction in infarction expansion in heart at 6 ug/kg/day, sc via osmotic pumps for 5 weeks by macroscopic analysis", "assay_type": "functional, organism-based", "conditions": "dose 6.0 µg/kg/day"}, "[14]": {"tested_on": "Mus musculus", "assay": "Cardioprotective activity against myocardial infarction Swiss mouse model assessed as increase in alpha-SMA gene expression in heart at 6 ug/kg/day, sc via osmotic pumps for 5 weeks by qPCR analysis", "assay_type": "functional, organism-based", "conditions": "dose 6.0 µg/kg/day"}, "[15]": {"molecular_target": "Frizzled-1 (Homo sapiens) (UniProt Q9UP38)", "sequence (Q9UP38 70-647 limits assumed)": "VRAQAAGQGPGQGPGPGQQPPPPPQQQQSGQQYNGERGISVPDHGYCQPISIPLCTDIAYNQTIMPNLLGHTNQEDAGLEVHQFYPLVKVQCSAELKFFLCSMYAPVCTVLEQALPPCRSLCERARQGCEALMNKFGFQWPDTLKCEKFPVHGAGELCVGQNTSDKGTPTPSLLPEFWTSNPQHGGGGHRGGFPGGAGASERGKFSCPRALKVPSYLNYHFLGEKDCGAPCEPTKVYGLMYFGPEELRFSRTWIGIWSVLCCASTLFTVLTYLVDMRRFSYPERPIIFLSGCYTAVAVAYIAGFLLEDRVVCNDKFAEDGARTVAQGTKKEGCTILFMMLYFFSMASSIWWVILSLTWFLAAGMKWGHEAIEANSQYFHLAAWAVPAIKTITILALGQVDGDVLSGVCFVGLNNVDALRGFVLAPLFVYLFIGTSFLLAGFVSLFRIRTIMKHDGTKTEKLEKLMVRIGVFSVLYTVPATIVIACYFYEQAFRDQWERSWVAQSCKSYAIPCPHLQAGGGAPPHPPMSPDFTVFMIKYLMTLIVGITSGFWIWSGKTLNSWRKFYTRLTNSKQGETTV", "assay": "Antagonist activity at Wnt3a-stimulaed human frizzled-1 expressed in human HEK293superTOP flash cells incubated for 24 hrs by luciferase reporter gene assay", "assay_type": "functional, cell-based", "conditions": "HEK293, filed as antagonist"}, "[16]": {"molecular_target": "Frizzled-1 (Homo sapiens) (UniProt Q9UP38)", "assay": "Antagonist activity at frizzled-1 (unknown origin) expressed in rat C-FIT cells assessed as inhibition of Wnt3a-stimulated cell differentiation changes by measuring alpha-smooth muscle actin gene expression at 10 nM by quantitative RT-PCR analysis", "assay_type": "functional, cell-based", "conditions": "filed as antagonist"}, "[17]": {"molecular_target": "Frizzled-1 (Mus musculus) (UniProt O70421)", "sequence (O70421 whole entry, looked up)": "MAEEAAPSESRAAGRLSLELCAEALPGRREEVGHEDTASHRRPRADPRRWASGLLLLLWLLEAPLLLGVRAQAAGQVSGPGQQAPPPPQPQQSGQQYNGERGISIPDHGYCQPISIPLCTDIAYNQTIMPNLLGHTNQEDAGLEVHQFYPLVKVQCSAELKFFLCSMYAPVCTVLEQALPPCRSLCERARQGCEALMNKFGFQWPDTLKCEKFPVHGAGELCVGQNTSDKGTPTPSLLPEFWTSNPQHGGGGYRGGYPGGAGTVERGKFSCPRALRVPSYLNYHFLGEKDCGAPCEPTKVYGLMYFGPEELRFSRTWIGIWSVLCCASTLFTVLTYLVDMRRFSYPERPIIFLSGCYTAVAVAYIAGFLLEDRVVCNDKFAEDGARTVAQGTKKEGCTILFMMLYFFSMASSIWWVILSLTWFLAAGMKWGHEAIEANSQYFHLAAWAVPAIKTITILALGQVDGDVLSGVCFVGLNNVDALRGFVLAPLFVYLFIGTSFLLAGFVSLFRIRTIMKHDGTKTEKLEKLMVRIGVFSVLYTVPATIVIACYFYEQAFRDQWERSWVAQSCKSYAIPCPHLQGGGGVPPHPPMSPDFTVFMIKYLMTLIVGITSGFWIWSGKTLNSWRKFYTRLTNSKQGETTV", "assay": "Antagonist activity at Wnt3a-stimulaed mouse frizzled-1 expressed in human HEK293superTOP flash cells incubated for 24 hrs by luciferase reporter gene assay", "assay_type": "cell-based", "conditions": "HEK293, filed as antagonist"}, "[18]": {"molecular_target": "Frizzled-2 (Homo sapiens) (UniProt Q14332)", "assay": "Antagonist activity at Wnt3a-stimulaed human frizzled-2 expressed in human HEK293superTOP flash cells incubated for 24 hrs by luciferase reporter gene assay", "assay_type": "functional, cell-based", "conditions": "HEK293, filed as antagonist"}, "[19]": {"molecular_target": "Frizzled-5 (Homo sapiens) (UniProt Q13467)", "sequence (Q13467 whole entry)": "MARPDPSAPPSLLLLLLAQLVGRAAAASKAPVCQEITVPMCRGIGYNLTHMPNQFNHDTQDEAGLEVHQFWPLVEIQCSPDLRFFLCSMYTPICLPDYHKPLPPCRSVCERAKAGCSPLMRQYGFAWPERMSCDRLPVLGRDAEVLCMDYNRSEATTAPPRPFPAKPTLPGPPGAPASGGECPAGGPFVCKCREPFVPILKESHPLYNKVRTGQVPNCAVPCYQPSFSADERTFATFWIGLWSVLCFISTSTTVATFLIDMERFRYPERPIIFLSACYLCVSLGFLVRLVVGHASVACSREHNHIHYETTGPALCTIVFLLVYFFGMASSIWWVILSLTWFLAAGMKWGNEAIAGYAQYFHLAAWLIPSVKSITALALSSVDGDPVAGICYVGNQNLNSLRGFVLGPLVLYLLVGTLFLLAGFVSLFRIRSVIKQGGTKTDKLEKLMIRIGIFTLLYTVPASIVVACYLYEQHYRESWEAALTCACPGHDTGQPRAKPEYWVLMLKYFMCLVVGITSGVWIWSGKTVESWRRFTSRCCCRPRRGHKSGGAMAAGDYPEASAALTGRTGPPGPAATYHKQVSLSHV", "assay": "Antagonist activity at Wnt3a-stimulaed frizzled-5 (unknown origin) expressed in human HEK293superTOP flash cells incubated for 24 hrs by luciferase reporter gene assay", "assay_type": "functional, cell-based", "conditions": "HEK293"}, "[20]": {"molecular_target": "Frizzled-1 (Rattus norvegicus) (UniProt Q08463)", "assay": "Antagonist activity at rat frizzled-1 expressed in rat C-FIT cells assessed as inhibition of Wnt3a-stimulated blockade of migration at 10 nM incubated for 48 hrs and measured for 24 hrs following the scratch by scratch wound healing assay", "assay_type": "cell-based", "conditions": "filed as antagonist, time 72.0 hrs"}, "[21]": {"molecular_target": "Frizzled-1 (Rattus norvegicus) (UniProt Q08463)", "assay": "Agonist activity at rat frizzled-1 expressed in CHO cells by luciferase reporter gene assay", "assay_type": "cell-based"}, "[22]": {"molecular_target": "Frizzled-2 (Homo sapiens) (UniProt Q14332)", "assay": "Antagonist activity at frizzled-2 (unknown origin) expressed in rat C-FIT cells assessed as inhibition of Wnt3a-stimulated blockade of migration at 10 nM incubated for 48 hrs and measured for 24 hrs following the scratch by scratch wound healing assay", "assay_type": "functional, cell-based", "conditions": "filed as antagonist, time 72.0 hrs"}, "[23]": {"tested_on": "Mus musculus", "assay": "Cardioprotective activity against myocardial infarction Swiss mouse model assessed as increase in myofibroblast number at 6 ug/kg/day, sc via osmotic pumps for 5 weeks by immunohistochemical staining analysis", "assay_type": "functional, organism-based", "conditions": "dose 6.0 µg/kg/day"}, "[24]": {"molecular_target": "Frizzled-1 (Homo sapiens) (UniProt Q9UP38)", "assay": "Antagonist activity at Wnt3a-stimulaed frizzled-1 (unknown origin) expressed in human HEK293superTOP flash cells at 1 nM incubated for 24 hrs by luciferase reporter gene assay (reference value: 0%)", "assay_type": "functional, cell-based", "conditions": "HEK293, filed as antagonist"}, "[25]": {"molecular_target": "Frizzled-1 (Rattus norvegicus) (UniProt Q08463)", "assay": "Antagonist activity at Wnt3a-stimulated rat frizzled-1 expressed in CHO cells incubated for 24 hrs by luciferase reporter gene assay relative to control", "assay_type": "cell-based", "conditions": "filed as antagonist, concentration not given here"}, "[26]": {"tested_on": "Mus musculus", "assay": "Cardioprotective activity against myocardial infarction Swiss mouse model assessed as reduction in infarct area in heart at 6 ug/kg/day, sc via osmotic pumps for 2 to 5 weeks by immunohistochemical staining analysis", "assay_type": "functional, organism-based", "conditions": "dose 6.0 µg/kg/day, time 2-5 weeks"}, "[27]": {"tested_on": "Mus musculus", "assay": "Cardioprotective activity against myocardial infarction Swiss mouse model assessed as increase in alpha-SMA protein expression in heart at 6 ug/kg/day, sc via osmotic pumps for 5 weeks by western blot analysis", "assay_type": "functional, organism-based", "conditions": "dose 6.0 µg/kg/day"}, "[28]": {"molecular_target": "Frizzled-1 (Rattus norvegicus) (UniProt Q08463)", "assay": "Antagonist activity at Wnt3a-stimulated rat frizzled-1 expressed in human HEK293superTOP flash cells at 10 nM incubated for 24 hrs by luciferase reporter gene assay relative to control", "assay_type": "cell-based", "conditions": "HEK293, filed as antagonist"}, "[29]": {"molecular_target": "Frizzled-2 (Homo sapiens) (UniProt Q14332)", "assay": "Antagonist activity at frizzled-2 (unknown origin) expressed in rat C-FIT cells assessed as inhibition of Wnt3a-stimulated cell differentiation changes by measuring alpha-smooth muscle actin gene expression at 10 nM by quantitative RT-PCR analysis", "assay_type": "functional, cell-based", "conditions": "filed as antagonist"}}, "note": "The source made the active and inactive calls. No cut-off for these calls is given here. Where a SMILES comes first, the peptide text is derived from it."}
{"molecule": "CSCC[C@H](NC(=O)CNC(=O)[C@H](CCC(=O)O)NC(=O)[C@H](CO)NC(=O)[C@@H](NC(=O)[C@H](CCCCN)NC(=O)[C@H](CC(N)=O)NC(=O)[C@H](CS)NC(C)=O)[C@@H](C)O)C(=O)N[C@@H](CC(=O)O)C(=O)NCC(=O)N[C@@H](CS)C(=O)N[C@@H](CCC(=O)O)C(=O)N[C@@H](CC(C)C)C(N)=O", "note": "(Ac-CNKTSEGMDGCEL-NH2)", "values": [{"measurement": "inhibition", "setting": "[1]", "result": 100, "unit": "%"}, {"measurement": "inhibition", "setting": "[2]", "result": "Dose-Dependent Effect"}, {"measurement": "Activity", "setting": "[3]", "result": "inactive"}, {"measurement": "Activity", "setting": "[4]", "result": "Active"}, {"measurement": "Activity", "setting": "[5]", "result": "Active"}, {"measurement": "Activity", "setting": "[6]", "result": "inactive"}, {"measurement": "Activity", "setting": "[7]", "result": "inactive"}, {"measurement": "Activity", "setting": "[8]", "result": "inactive"}, {"measurement": "Ratio IC50", "setting": "[9]", "result": 100}, {"measurement": "inhibition", "setting": "[10]", "result": "inactive"}, {"measurement": "inhibition", "setting": "[11]", "result": 100, "unit": "%"}, {"measurement": "inhibition", "setting": "[12]", "result": "inactive"}, {"measurement": "Activity", "setting": "[13]", "result": "Active"}, {"measurement": "Activity", "setting": "[14]", "result": "Active"}, {"measurement": "inhibition", "setting": "[15]", "result": "Active"}, {"measurement": "inhibition", "setting": "[16]", "result": 100, "unit": "%"}, {"measurement": "inhibition", "setting": "[17]", "result": "Active"}, {"measurement": "inhibition", "setting": "[18]", "result": "Active"}, {"measurement": "inhibition", "setting": "[19]", "result": "inactive"}, {"measurement": "inhibition", "setting": "[20]", "result": 100, "unit": "%"}, {"measurement": "Activity", "setting": "[21]", "result": "inactive"}, {"measurement": "inhibition", "setting": "[22]", "result": 100, "unit": "%"}, {"measurement": "Activity", "setting": "[23]", "result": "Active"}, {"measurement": "inhibition", "setting": "[24]", "result": 18, "unit": "%"}, {"measurement": "inhibition", "setting": "[25]", "result": 100, "unit": "%"}, {"measurement": "Activity", "setting": "[26]", "result": "Active"}, {"measurement": "Activity", "setting": "[27]", "result": "Active"}, {"measurement": "inhibition", "setting": "[28]", "result": 100, "unit": "%"}, {"measurement": "inhibition", "setting": "[29]", "result": 100, "unit": "%"}]}
